Experimental data: ChEMBL document CHEMBL1201862, “PubChem BioAssay data set” (2004)
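Compound exposure: 48 hours, 5 concentrations, 96-well plates. The concentration for 50% growth inhibition is given as GI50.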 Calls of active or inactive are those of the source. Rule as the data show it: active = GI50 up to about 1.1 µM and inactive = higher.

Tests used:
Assay in all cases: NCI tumour cell line growth inhibition, 48 h
786-0 = test system: 786-0
A549 = test system: A549
ACHN = test system: ACHN
CAKI-1 = test system: CAKI-1
CCRF-CEM = test system: CCRF-CEM
COLO 205 = test system: COLO 205
DMS-114 = test system: DMS-114
DMS-273 = test system: DMS-273
EKVX = test system: EKVX
HCC 2998 = test system: HCC 2998
HCT-116 = test system: HCT-116
HCT-15 = test system: HCT-15
HL-60 = test system: HL-60
HOP-18 = test system: HOP-18
HOP-62 = test system: HOP-62
HOP-92 = test system: HOP-92
HT-29 = test system: HT-29
IGROV-1 = test system: IGROV-1
K562 = test system: K562
KM-20L2 = test system: KM-20L2
KM12 = test system: KM12
LOX IMVI = test system: LOX IMVI
LXFL 529 = test system: LXFL 529
M14 = test system: M14
M19-MEL = test system: M19-MEL
MOLT-4 = test system: MOLT-4
Malme-3M = test system: Malme-3M
NCI-H23 = test system: NCI-H23
NCI-H460 = test system: NCI-H460
OVCAR-3 = test system: OVCAR-3
OVCAR-4 = test system: OVCAR-4
OVCAR-5 = test system: OVCAR-5
OVCAR-8 = test system: OVCAR-8
RPMI-8226 = test system: RPMI-8226
RXF 393 = test system: RXF 393
RXF 631 = test system: RXF 631
SF-268 = test system: SF-268
SF-295 = test system: SF-295
SF-539 = test system: SF-539
SK-MEL-2 = test system: SK-MEL-2
SK-MEL-5 = test system: SK-MEL-5
SK-OV-3 = test system: SK-OV-3
SN12C = test system: SN12C
SNB-19 = test system: SNB-19
SNB-75 = test system: SNB-75
SNB-78 = test system: SNB-78
SW-620 = test system: SW-620
TK-10 = test system: TK-10
U-251 = test system: U-251
UACC-257 = test system: UACC-257
UACC-62 = test system: UACC-62
UO-31 = test system: UO-31
XF498 = test system: XF498
A498 = test system: A498
DLD-1 = test system: DLD-1
NCI-H522 = test system: NCI-H522
SK-MEL-28 = test system: SK-MEL-28
SR = test system: SR
NCI-H226 = test system: NCI-H226

## O=C(/N=N/C(=O)OCc1ccccc1)OCc1ccccc1
786-0
  GI50: > 100 µM (inactive)
A549
  GI50: 81.3 µM (inactive)
ACHN
  GI50: 76.4 µM (inactive)
CAKI-1
  GI50: 49.8 µM (inactive)
CCRF-CEM
  GI50: 84.1 µM (inactive)
COLO 205
  GI50: > 100 µM (inactive)
DMS-114
  GI50: 34.4 µM (inactive)
DMS-273
  GI50: 91.6 µM (inactive)
EKVX
  GI50: > 100 µM (inactive)
HCC 2998
  GI50: > 100 µM (inactive)
HCT-116
  GI50: > 100 µM (inactive)
HCT-15
  GI50: 94.2 µM
HL-60
  GI50: 43.7 µM (inactive)
HOP-18
  GI50: > 100 µM (inactive)
HOP-62
  GI50: > 100 µM (inactive)
HOP-92
  GI50: 10.4 µM (inactive)
HT-29
  GI50: > 100 µM (inactive)
IGROV-1
  GI50: > 100 µM (inactive)
K562
  GI50: 63.5 µM (inactive)
KM-20L2
  GI50: > 100 µM (inactive)
KM12
  GI50: 88.3 µM (inactive)
LOX IMVI
  GI50: > 100 µM (inactive)
LXFL 529
  GI50: 68.2 µM (inactive)
M14
  GI50: > 100 µM (inactive)
M19-MEL
  GI50: > 100 µM (inactive)
MOLT-4
  GI50: 31.9 µM (inactive)
Malme-3M
  GI50: > 100 µM (inactive)
NCI-H23
  GI50: 99.8 µM (inactive)
NCI-H460
  GI50: > 100 µM (inactive)
OVCAR-3
  GI50: 58.2 µM (inactive)
OVCAR-4
  GI50: 66.1 µM (inactive)
OVCAR-5
  GI50: > 100 µM (inactive)
OVCAR-8
  GI50: > 100 µM (inactive)
RPMI-8226
  GI50: 53.2 µM (inactive)
RXF 393
  GI50: > 100 µM (inactive)
RXF 631
  GI50: > 100 µM (inactive)
SF-268
  GI50: 96.4 µM (inactive)
SF-295
  GI50: 35 µM (inactive)
SF-539
  GI50: > 100 µM (inactive)
SK-MEL-2
  GI50: > 100 µM (inactive)
SK-MEL-5
  GI50: > 100 µM (inactive)
SK-OV-3
  GI50: > 100 µM (inactive)
SN12C
  GI50: > 100 µM (inactive)
SNB-19
  GI50: 64.9 µM (inactive)
SNB-75
  GI50: 42.1 µM (inactive)
SNB-78
  GI50: > 100 µM (inactive)
SW-620
  GI50: > 100 µM (inactive)
TK-10
  GI50: > 100 µM (inactive)
U-251
  GI50: 83.8 µM (inactive)
UACC-257
  GI50: > 100 µM (inactive)
UACC-62
  GI50: > 100 µM (inactive)
UO-31
  GI50: 31.6 µM (inactive)
XF498
  GI50: > 100 µM (inactive)

## O=C(c1ccccc1)n1cc(/C=C/[N+](=O)[O-])c2ccccc21
786-0
  GI50: 20.2 µM (inactive)
A498
  GI50: > 100 µM (inactive)
A549
  GI50: 85.1 µM (inactive)
ACHN
  GI50: > 100 µM (inactive)
CAKI-1
  GI50: 84.9 µM (inactive)
CCRF-CEM
  GI50: 13.4 µM (inactive)
COLO 205
  GI50: 24.7 µM (inactive)
DLD-1
  GI50: 18.4 µM (inactive)
DMS-114
  GI50: 21.8 µM (inactive)
DMS-273
  GI50: 25.1 µM (inactive)
EKVX
  GI50: > 100 µM (inactive)
HCT-116
  GI50: 17.9 µM (inactive)
HCT-15
  GI50: 19.5 µM
HL-60
  GI50: 3.24 µM (inactive)
HOP-18
  GI50: > 100 µM (inactive)
HOP-62
  GI50: > 100 µM (inactive)
HOP-92
  GI50: 23.8 µM (inactive)
HT-29
  GI50: 44.2 µM (inactive)
IGROV-1
  GI50: 22.6 µM (inactive)
K562
  GI50: 19.7 µM (inactive)
KM12
  GI50: 18.5 µM (inactive)
LOX IMVI
  GI50: 15.2 µM (inactive)
LXFL 529
  GI50: 18.5 µM (inactive)
M14
  GI50: 20.8 µM (inactive)
M19-MEL
  GI50: 20.8 µM (inactive)
MOLT-4
  GI50: 17.2 µM (inactive)
Malme-3M
  GI50: 32.2 µM (inactive)
NCI-H23
  GI50: 20.1 µM (inactive)
NCI-H460
  GI50: 21.9 µM (inactive)
NCI-H522
  GI50: 15.1 µM (inactive)
OVCAR-3
  GI50: 51.8 µM (inactive)
OVCAR-4
  GI50: 27 µM (inactive)
OVCAR-5
  GI50: > 100 µM (inactive)
OVCAR-8
  GI50: 35.6 µM (inactive)
RPMI-8226
  GI50: 15.7 µM (inactive)
RXF 393
  GI50: 20.5 µM (inactive)
RXF 631
  GI50: 17.3 µM (inactive)
SF-268
  GI50: 23.1 µM (inactive)
SF-295
  GI50: 42 µM (inactive)
SF-539
  GI50: 21.4 µM (inactive)
SK-MEL-28
  GI50: 18.5 µM (inactive)
SK-MEL-2
  GI50: 19.9 µM (inactive)
SK-MEL-5
  GI50: 34.8 µM (inactive)
SK-OV-3
  GI50: > 100 µM (inactive)
SN12C
  GI50: 39.2 µM (inactive)
SNB-19
  GI50: 30.7 µM (inactive)
SNB-75
  GI50: 32.7 µM (inactive)
SNB-78
  GI50: 30.9 µM (inactive)
SR
  GI50: 19.7 µM (inactive)
SW-620
  GI50: 19.6 µM (inactive)
TK-10
  GI50: > 100 µM (inactive)
U-251
  GI50: 18.5 µM (inactive)
UACC-257
  GI50: 21.2 µM (inactive)
UACC-62
  GI50: 20.1 µM (inactive)
UO-31
  GI50: 20.1 µM (inactive)
XF498
  GI50: 29.8 µM (inactive)

## CC(=O)N1CCC(=O)/C(=C/c2ccccc2)C1
786-0
  GI50: 27.7 µM (inactive)
A498
  GI50: 56.5 µM (inactive)
A549
  GI50: 71.9 µM (inactive)
ACHN
  GI50: 22.1 µM (inactive)
CAKI-1
  GI50: 15.5 µM (inactive)
COLO 205
  GI50: 34.6 µM (inactive)
DLD-1
  GI50: 24.1 µM (inactive)
DMS-114
  GI50: 15.8 µM (inactive)
DMS-273
  GI50: 33 µM (inactive)
HCC 2998
  GI50: 33.1 µM (inactive)
HCT-116
  GI50: 18.1 µM (inactive)
HCT-15
  GI50: 17.1 µM
HOP-18
  GI50: 23.2 µM (inactive)
HOP-62
  GI50: 89.3 µM (inactive)
HOP-92
  GI50: 33.1 µM (inactive)
HT-29
  GI50: 20.3 µM (inactive)
IGROV-1
  GI50: 19.8 µM (inactive)
K562
  GI50: 37.8 µM (inactive)
KM-20L2
  GI50: 27.4 µM (inactive)
KM12
  GI50: 24.3 µM (inactive)
LOX IMVI
  GI50: 16.1 µM (inactive)
LXFL 529
  GI50: 21.9 µM (inactive)
M14
  GI50: 33.8 µM (inactive)
M19-MEL
  GI50: 20.4 µM (inactive)
MOLT-4
  GI50: 33.2 µM (inactive)
Malme-3M
  GI50: 91.2 µM (inactive)
NCI-H226
  GI50: > 100 µM (inactive)
NCI-H23
  GI50: 32.4 µM (inactive)
NCI-H460
  GI50: 27.7 µM (inactive)
OVCAR-3
  GI50: 33.3 µM (inactive)
OVCAR-4
  GI50: 19.3 µM (inactive)
OVCAR-5
  GI50: > 100 µM (inactive)
OVCAR-8
  GI50: 21.2 µM (inactive)
RPMI-8226
  GI50: 42.7 µM (inactive)
RXF 393
  GI50: 22.8 µM (inactive)
RXF 631
  GI50: 28.9 µM (inactive)
SF-268
  GI50: 20.5 µM (inactive)
SF-295
  GI50: 42.8 µM (inactive)
SF-539
  GI50: 23.3 µM (inactive)
SK-MEL-28
  GI50: 18 µM (inactive)
SK-MEL-5
  GI50: 34 µM (inactive)
SK-OV-3
  GI50: 75.2 µM (inactive)
SN12C
  GI50: 18.2 µM (inactive)
SNB-19
  GI50: > 100 µM (inactive)
SNB-75
  GI50: 37.1 µM (inactive)
SNB-78
  GI50: 38.5 µM (inactive)
SR
  GI50: 24.5 µM (inactive)
SW-620
  GI50: 17.6 µM (inactive)
TK-10
  GI50: 97.3 µM (inactive)
U-251
  GI50: 17.1 µM (inactive)
UACC-257
  GI50: > 100 µM (inactive)
UACC-62
  GI50: 24.7 µM (inactive)
UO-31
  GI50: > 100 µM (inactive)
XF498
  GI50: 64 µM (inactive)
